How the values were obtained:
Septoria nodorum = assay: Fungicidal test, Septoria nodorum (LEPTNO) on wheat, PRCO; type: in vivo; conditions: METHOD 2 (unbanded)
Puccinia recondita = assay: Fungicidal test, Puccinia recondita (PUCCRT) on wheat, PRCO; type: in vivo; conditions: METHOD 2 (unbanded)
[1] = test system: Erysiphe graminis f.sp. tritici; assay: Fungicidal test, Erysiphe graminis f.sp. tritici (ERYSGT) on wheat, PRCO; type: in vivo; conditions: 1 d Prot/Foir; METHOD 2 (unbanded)
Uncinula necator = assay: Fungicidal test, Uncinula necator (UNCINE) on vines, PRCO; type: in vivo; conditions: METHOD 2 (unbanded)
Venturia inaequalis = assay: Fungicidal test, Venturia inaequalis (VENTIN) on apples, PRCO; type: in vivo; conditions: METHOD 2 (unbanded)
Pyricularia oryzae = type: in vivo; conditions: METHOD 2 (unbanded)
Meloidogyne incognita = assay: Nematode test, J2 infective juveniles of Meloidogyne incognita, mortality; conditions: 12.5 ppm; J2 infective juveniles suspended in solution; mortality after three days
Description: (§1) The activities of individual compounds of formula (I) were determined using a variety of pests. With the exception of nematodes, the pests were treated with a liquid composition containing 500 parts per million (ppm) by weight of a compound unless otherwise stated. Each composition was made by dissolving the compound in an acetone and ethanol (50:50 by volume) mixture and diluting the solution with water containing 0.05% by volume of a wetting agent, SYNPERONIC NP8, until the liquid composition contained the required concentration of the compound.
The test procedure for nematodes involved dissolving the compound in an acetone and ethanol (50:50 by volume) mixture and diluting the solution with water to obtain a final concentration of the compound of 12.5 ppm. J2 infective juveniles of Meloidogyne incognita were suspended in the solution in a glass vial and mortality assessed after a period of three days.

Musca domestica = conditions: 500 ppm by weight; knockdown assessed 15 minutes after treatment
Description: as §1
The test procedure adopted with regard to each pest, except nematodes, was essentially the same and composed supporting a number of the pests on a medium which was usually a substrate, a host plant or a foodstuff on which the pests feed, and treating either or both the medium and the pests with a composition. Pest mortality was assessed usually between three and five days after treatment Knockdown of housefly (Musca domestica) was assessed 15 minutes after treatment

[2] = test system: Phytophthora infestans lycopersici; type: in vivo; conditions: METHOD 2 (unbanded)

| Structure (SMILES) | LEPTNO 1 d Prot/Foir PRCO (Septoria nodorum) | PUCCRT 1 d Prot/Foir PRCO (Puccinia recondita) | ERYSGT 1 d Prot/Foir PRCO [1] | UNCINE 1 d Prot/Foir PRCO (Uncinula necator) | VENTIN 1 d Prot/Foir PRCO (Venturia inaequalis) | PYRIOR 1 d Prot/Foir PRCO (Pyricularia oryzae) | MELGIN = Meloidogyne incognita, grading of mortality (score) (Meloidogyne incognita) | MUSCDO AC = Musca domestica (knockdown), score (Musca domestica) | PHYTIN 1 d Prot/Foir PRCO [2] |
| --- | --- | --- | --- | --- | --- | --- | --- | --- | --- |
| CCC(Cl)c1nc2cc(CC(=O)Nc3snc(C)c3Cl)ccc2o1 (racemic) [95(A3)] | 8 | 100 | 68 | 100 | 98 | 96 | 0 (0 indicates less than 40% mortality) | – | – |
| Cc1nsc(NC(=O)Cc2ccc3oc(C(C)C#N)nc3c2)c1Cl (racemic) [115(A3)] | 8 | 45 | −3 | 2 | 15 | 5 | 0 (0 indicates less than 40% mortality) | – | – |
| Cc1nc2cc(CC(=O)Nc3snc(C)c3Br)ccc2o1 [2(A4)] | −12 | 100 | 97 | 90 | 92 | 99 | 0 (0 indicates less than 40% mortality) | 5 (5 indicates 40-79% mortality) | 100 |
| Cc1nc2cc(CC(=O)Nc3snc(C)c3C#N)ccc2o1 [2(A5)] | −2 | 28 | 18 | 3 | 19 | 31 | 5 (5 indicates 40-79% mortality) | – | 19 |
| CCc1nsc(NC(=O)Cc2ccc3oc(C)nc3c2)c1Cl [2(A8)] | 9 | 100 | 54 | 74 | 8 | 75 | 0 (0 indicates less than 40% mortality) | – | 74 |
| Cc1nc2ccc(CC(=O)Nc3snc(C)c3Cl)cc2[nH]1 [2(A43)] | −3 | 7 | 20 | 11 | 14 | 48 | 5 (5 indicates 40-79% mortality) | 0 (0 indicates less than 40% mortality) | 18 |
| CCCc1nc2cc(CC(=O)Nc3snc(C)c3Cl)ccc2s1 [4(A13)] | 20 | 100 | 100 | 100 | 55 | 100 | 0 (0 indicates less than 40% mortality) | 9 (9 indicates 80-100% mortality) | – |
| CCCc1nc2ccc(CC(=O)Nc3snc(C)c3Cl)cc2[nH]1 [4(A43)] | 0 | 31 | – | 35 | – | 38 | – | – | 0 |
| Cc1nsc(NC(=O)Cc2ccc3nc(C(C)(C)C)[nH]c3c2)c1Cl [9(A43)] | −4 | 25 | 7 | 7 | 38 | 26 | 0 (0 indicates less than 40% mortality) | 0 (0 indicates less than 40% mortality) | 0 |
| Cc1cc(NC(=O)Cc2ccc3oc(CC(C)(C)C)nc3c2)sn1 [15(A1)] | 4 | 96 | 43 | 100 | 54 | 87 | 0 (0 indicates less than 40% mortality) | 5 (5 indicates 40-79% mortality) | 100 |
| Cc1nsc(NC(=O)Cc2ccc3oc(CC(C)(C)C)nc3c2)c1Br [15(A4)] | 19 | 99 | 91 | 100 | 54 | 98 | 0 (0 indicates less than 40% mortality) | 9 (9 indicates 80-100% mortality) | 100 |
| Cc1nsc(NC(=O)Cc2ccc3oc(CC(C)(C)C)nc3c2)c1C#N [15(A5)] | −2 | 84 | 15 | 83 | 3 | 81 | 0 (0 indicates less than 40% mortality) | – | 45 |
| CCc1nsc(NC(=O)Cc2ccc3oc(CC(C)(C)C)nc3c2)c1Cl [15(A8)] | −2 | – | 80 | 100 | 24 | 81 | 0 (0 indicates less than 40% mortality) | – | 99 |
| Cc1nsc(NC(=O)Cc2ccc3nc(CC(C)(C)C)[nH]c3c2)c1Cl [15(A43)] | 0 | – | – | 63 | – | 63 | – | – | 80 |
| Cc1nsc(N(CC(F)(F)F)C(=O)Cc2ccc3oc(CC(C)(C)C)nc3c2)c1Cl [15(H3)] | 2 | 29 | 16 | 63 | 0 | 46 | 0 (0 indicates less than 40% mortality) | – | – |
| Cc1nsc(NC(=O)Cc2ccc3oc(C4CC4)nc3c2)c1Cl [21(A3)] | 14 | 100 | 35 | 44 | 50 | 92 | 0 (0 indicates less than 40% mortality) | – | – |
| Cc1nsc(NC(=O)Cc2ccc3oc(C4CCCCC4)nc3c2)c1Cl [35((A3)] | – | – | – | 100 | 70 | 98 | – | – | – |
| Cc1nsc(NC(=O)Cc2ccc3oc(C(F)(F)F)nc3c2)c1Cl [75(A3)] | 27 | 94 | 90 | 53 | 15 | 78 | 0 (0 indicates less than 40% mortality) | – | – |
| Cc1nsc(NC(=O)Cc2ccc3oc(C(F)(F)C(F)F)nc3c2)c1Cl [79(A3)] | 14 | 100 | 100 | 90 | 88 | 98 | 0 (0 indicates less than 40% mortality) | – | – |
| COCc1nc2cc(CC(=O)Nc3snc(C)c3Cl)ccc2o1 [130(A3)] | 21 | 100 | 87 | 86 | 60 | 93 | 0 (0 indicates less than 40% mortality) | – | – |
| CCN(C)c1nc2cc(CC(=O)Nc3snc(C)c3Cl)ccc2o1 [180(A3)] | 14 | 69 | 29 | 42 | 0 | 42 | 0 (0 indicates less than 40% mortality) | 0 (0 indicates less than 40% mortality) | – |
| Cc1nsc(NC(=O)Cc2ccc3oc(Cc4c(F)c(F)c(F)c(F)c4F)nc3c2)c1Cl [239(A3)] | – | 3 | 23 | 51 | 5 | 11 | 0 (0 indicates less than 40% mortality) | – | – |
| Cc1nsc(NC(=O)Cc2ccc3oc(-c4c(Cl)cc(C(F)(F)F)cc4Cl)nc3c2)c1Cl [244(A3)] | −2 | 84 | 3 | – | 45 | −2 | 0 (0 indicates less than 40% mortality) | – | – |
| Cc1nsc(NC(=O)Cc2ccc3oc(-c4c(F)c(F)c(F)c(F)c4F)nc3c2)c1Cl [287(A3)] | −2 | 94 | 34 | 20 | 8 | 19 | 0 (0 indicates less than 40% mortality) | – | 3 |
| Cc1nsc(NC(=O)Cc2ccc3oc(-c4ccncc4)nc3c2)c1Cl [339((A3)] | – | – | – | 26 | 8 | 33 | – | – | – |

Source: US6544989B2, “Benzazoles: benzoxazole, benzthiazole and benzimidazole derivatives” (Syngenta Limited, priority 1998, dated 2003)
